Reference: patent US20010024809A1, “Compounds with an antioxidant activity, compositions useful as food integrators containing them and process for their preparation” (priority 2000, published 2001)

Assay: Chemiluminescent antioxidant capacity in vitro (luminol/H2O2/p-iodophenol, peroxidase)
Format: biochemical
Details: for Time (min.) necessary for reaching 50% of the control light emission: water control; for light emission: concentration not given; for antioxidant activity in vitro compared with Trolox: same concentration, extinguishing time of the light emission
Experimental: The antioxidant capacity “in vitro” of FPA and FPB compounds, extracted from Ajuga reptans, and “in vivo” of the serum of rats treated with these substances, was evaluated by means of a chemiluminescent method and compared with that of an analogous hydrosoluble product of vitamin E.
The chemiluminescent reaction of luminol was used, which is oxidized by hydrogen peroxide (H2O2), generating unstable radicals which degenerate to their basic state emitting light. This reaction is catalyzed by peroxidase enzyme. A signal potentiator is also present in the system: p-iodophenol which increases the light emission, producing in turn radicals which degenerate emitting photons.
The presence of substances with an antioxidant activity interrupts the chain of radicalic reactions, temporarily preventing light emission. The time and extinguishing degree of the emission of photons are in relation to the antioxidant capacity and concentration of the substances being tested.
ECL reagent (luminol/H2O2/p-iodophenol) of Amersham International (Amersham, UK).
[…] (type VI-A, 1100 U/mg) of Sigma (St. Louis, Mo., U.S.A.).
Samples relating to FPA and FPB molecules extracted from Ajuga reptans, were prepared in aqueous solution at different concentrations (5.0, 2.0, 1.0 and 0.5 μM) and compared with solutions, at equal concentrations, of Trolox, an analogous hydrosoluble product of tocopherol. The serum of rats treated with raw extract of Ajuga reptans by intravenous administration at a dosage of 200 mg/kg were diluted 1:20 with water and compared with the serum of a non-treated rat.
Distilled water was used as control.
The dosage was effected in black polystyrene cylinders (Dynatech Laboratories, Chantilly, Va., U.S.A.). The chemiluminescent mixture was prepared by adding 100 μl of a dilution 1:10,000 v/v (0.11 U/ml) of a stock solution of peroxidase (1 mg/ml in a Tris-HCl 0.1 M buffer, pH 8.6) to 5 ml of ECL reagent. The various dilutions of the samples were distributed in quadruple into the cylinders (50 μl/cylinder) and 100 μl of chemiluminescent mixture were added to each. The light emission was measured immediately using a Luminograph LB980 (EG&G Berthold, Bad Wildbad, Germany) and the chemiluminescent reaction kinetics was monitored for about 60 minutes. The light emission was measured in photons/sec/pixel and the data obtained are indicated in Table 1 and the graph of FIG. 1 enclosed, compared with the control (water) and references (Trolox or serum of a non-treated rat).

Cc1c(C)c2c(c(C)c1O)CCC(C)(C(=O)O)O2 (racemic) [Trolox, (+/−)-6-hydroxy-2,5,7,8-tetramethylchroman-2-carbonsaeure, reference compound]
Time (min.) necessary for reaching 50% of the control light emission (Concentration 0.5 μM): 1 min
Time (min.) necessary for reaching 50% of the control light emission (Concentration 1 μM): 3 min
Time (min.) necessary for reaching 50% of the control light emission (Concentration 2 μM): 6 min
Time (min.) necessary for reaching 50% of the control light emission (Concentration 5 μM): 15 min
light emission (Time 0 (min)): 31.8 photons/sec/pixel
light emission (Time 2 (min)): 2.9 photons/sec/pixel
light emission (Time 5 (min)): 7.8 photons/sec/pixel
light emission (Time 7 (min)): 35.5 photons/sec/pixel
light emission (Time 9 (min)): 46.9 photons/sec/pixel
light emission (Time 11 (min)): 49.3 photons/sec/pixel
light emission (Time 14 (min)): 50.4 photons/sec/pixel
light emission (Time 17 (min)): 49.7 photons/sec/pixel
light emission (Time 19 (min)): 49.2 photons/sec/pixel
light emission (Time 21 (min)): 48.3 photons/sec/pixel
light emission (Time 23 (min)): 47.3 photons/sec/pixel
light emission (Time 26 (min)): 46.2 photons/sec/pixel
light emission (Time 28 (min)): 45.1 photons/sec/pixel
light emission (Time 30 (min)): 43.7 photons/sec/pixel
light emission (Time 32 (min)): 42.1 photons/sec/pixel
light emission (Time 34 (min)): 40.8 photons/sec/pixel
light emission (Time 37 (min)): 39.3 photons/sec/pixel
light emission (Time 41 (min)): 35.3 photons/sec/pixel
light emission (Time 44 (min)): 35 photons/sec/pixel
light emission (Time 46 (min)): 32.8 photons/sec/pixel
light emission (Time 49 (min)): 31.1 photons/sec/pixel
light emission (Time 51 (min)): 29.6 photons/sec/pixel
light emission (Time 53 (min)): 28.6 photons/sec/pixel
light emission (Time 56 (min)): 26.2 photons/sec/pixel
light emission (Time 58 (min)): 26.8 photons/sec/pixel
light emission (Time 61 (min)): 23.9 photons/sec/pixel

C[C@@H]1O[C@@H](O[C@@H]2[C@@H](O)[C@H](OCCc3ccc(O)c(O)c3)O[C@H](CO)[C@H]2OC(=O)/C=C/c2ccc(O)c(O)c2)[C@H](O[C@@H]2O[C@H](CO)[C@H](O)[C@H](O)[C@H]2O)[C@H](O)[C@H]1O [FPA, teupolioside]
Time (min.) necessary for reaching 50% of the control light emission (Concentration 0.5 μM): 13 min
Time (min.) necessary for reaching 50% of the control light emission (Concentration 1 μM): 35 min
Time (min.) necessary for reaching 50% of the control light emission (Concentration 2 μM): >60 min
Time (min.) necessary for reaching 50% of the control light emission (Concentration 5 μM): >60 min
light emission (Time 0 (min)): 31.8 photons/sec/pixel
light emission (Time 2 (min)): 1.3 photons/sec/pixel
light emission (Time 5 (min)): 1.4 photons/sec/pixel
light emission (Time 7 (min)): 1 photons/sec/pixel
light emission (Time 9 (min)): 0.9 photons/sec/pixel
light emission (Time 11 (min)): 0.8 photons/sec/pixel
light emission (Time 14 (min)): 0.8 photons/sec/pixel
light emission (Time 17 (min)): 0.7 photons/sec/pixel
light emission (Time 19 (min)): 0.6 photons/sec/pixel
light emission (Time 21 (min)): 0.6 photons/sec/pixel
light emission (Time 23 (min)): 0.6 photons/sec/pixel
light emission (Time 26 (min)): 0.5 photons/sec/pixel
light emission (Time 28 (min)): 0.6 photons/sec/pixel
light emission (Time 30 (min)): 0.5 photons/sec/pixel
light emission (Time 32 (min)): 0.6 photons/sec/pixel
light emission (Time 34 (min)): 1.1 photons/sec/pixel
light emission (Time 37 (min)): 0.8 photons/sec/pixel
light emission (Time 41 (min)): 0.7 photons/sec/pixel
light emission (Time 44 (min)): 0.9 photons/sec/pixel
light emission (Time 46 (min)): 0.8 photons/sec/pixel
light emission (Time 49 (min)): 0.8 photons/sec/pixel
light emission (Time 51 (min)): 0.8 photons/sec/pixel
light emission (Time 53 (min)): 0.8 photons/sec/pixel
light emission (Time 56 (min)): 1.1 photons/sec/pixel
light emission (Time 58 (min)): 0.8 photons/sec/pixel
light emission (Time 61 (min)): 1.1 photons/sec/pixel
activity relative to that of Trolox (dosage of 1 μM): ~12 times
antioxidant activity of FPA compared with FPB (in vitro): slightly higher activity with respect to the FPB compound
antioxidant activity in vitro compared with Trolox: extremely high antioxidant activity in vitro, significantly higher than that of Trolox

COc1cc(C=CC(=O)OC2C(CO)OC(OCCc3ccc(O)c(O)c3)C(O)C2OC2OC(C)C(O)C(O)C2OC2OC(CO)C(O)C(O)C2O)ccc1O (stereo not shown) [FPB]
Time (min.) necessary for reaching 50% of the control light emission (Concentration 0.5 μM): 6 min
Time (min.) necessary for reaching 50% of the control light emission (Concentration 1 μM): 29 min
Time (min.) necessary for reaching 50% of the control light emission (Concentration 2 μM): >60 min
Time (min.) necessary for reaching 50% of the control light emission (Concentration 5 μM): >60 min
light emission (Time 0 (min)): 31.8 photons/sec/pixel
light emission (Time 2 (min)): 0.3 photons/sec/pixel
light emission (Time 5 (min)): 0.2 photons/sec/pixel
light emission (Time 7 (min)): 0 photons/sec/pixel
light emission (Time 9 (min)): 0 photons/sec/pixel
light emission (Time 11 (min)): 0 photons/sec/pixel
light emission (Time 14 (min)): 0 photons/sec/pixel
light emission (Time 17 (min)): 0 photons/sec/pixel
light emission (Time 19 (min)): 0.1 photons/sec/pixel
light emission (Time 21 (min)): 0.4 photons/sec/pixel
light emission (Time 23 (min)): 1.1 photons/sec/pixel
light emission (Time 26 (min)): 1.8 photons/sec/pixel
light emission (Time 28 (min)): 2.6 photons/sec/pixel
light emission (Time 30 (min)): 3.5 photons/sec/pixel
light emission (Time 32 (min)): 5.1 photons/sec/pixel
light emission (Time 34 (min)): 7 photons/sec/pixel
light emission (Time 37 (min)): 6.6 photons/sec/pixel
light emission (Time 41 (min)): 7.6 photons/sec/pixel
light emission (Time 44 (min)): 8.6 photons/sec/pixel
light emission (Time 46 (min)): 8.9 photons/sec/pixel
light emission (Time 49 (min)): 9.6 photons/sec/pixel
light emission (Time 51 (min)): 10.3 photons/sec/pixel
light emission (Time 53 (min)): 10.9 photons/sec/pixel
light emission (Time 56 (min)): 11.4 photons/sec/pixel
light emission (Time 58 (min)): 12.1 photons/sec/pixel
light emission (Time 61 (min)): 12.7 photons/sec/pixel
antioxidant activity in vitro compared with Trolox: extremely high antioxidant activity in vitro, significantly higher than that of Trolox
